The values below come from patent US20240246937A1 (MERCK SHARP & DOHME LLC, priority 2021, published 2024).

Sequence of recombinant IL4I1 (Q96RQ9 22-567): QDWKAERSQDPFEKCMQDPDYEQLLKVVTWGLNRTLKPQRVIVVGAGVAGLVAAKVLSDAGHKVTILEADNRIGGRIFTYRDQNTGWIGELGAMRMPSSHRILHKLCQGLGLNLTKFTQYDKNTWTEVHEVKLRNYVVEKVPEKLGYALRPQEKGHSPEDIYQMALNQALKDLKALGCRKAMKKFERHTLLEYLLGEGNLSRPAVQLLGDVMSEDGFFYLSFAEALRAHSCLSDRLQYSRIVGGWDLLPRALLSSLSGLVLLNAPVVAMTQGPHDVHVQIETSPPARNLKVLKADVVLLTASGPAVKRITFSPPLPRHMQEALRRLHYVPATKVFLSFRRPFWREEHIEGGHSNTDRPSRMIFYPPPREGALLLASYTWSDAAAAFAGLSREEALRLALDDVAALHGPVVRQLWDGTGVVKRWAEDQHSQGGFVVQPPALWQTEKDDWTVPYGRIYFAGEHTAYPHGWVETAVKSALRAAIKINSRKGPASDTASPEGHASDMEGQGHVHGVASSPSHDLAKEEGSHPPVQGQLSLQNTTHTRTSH

This assay has as its target recombinant IL4I1 (Homo sapiens (Human), UniProt Q96RQ9). Briefly: IL4I1 Enzymatic Assay (Amplex Red/HRP coupled fluorescence detection of H2O2). Format: biochemical. The following applies: 240 min; recombinant IL4I1, four-hour pre-incubation with compound. Put shortly: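 Ten-point, 1:3 compound titrations were fitted by four-parameter sigmoidal regression to give EC50. Resorufin fluorescence (544/590 nm) from Amplex Red/HRP-coupled H2O2 detection was read 120 min after adding 1 mM each aromatic amino acid to 1 nM IL4I1, following a 4 h compound pre-incubation in pH 7.0 Hepes buffer.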
What is called EC50 is the concentration giving half of the maximal effect. For `O=C1C(=O)N([C@H]2C[C@@H](c3ccccc3)C2)CCN1Cc1ccc(-n2nccn2)nn1` [Example 326, 1-((6-(2H-1,2,3-triazol-2-yl)pyridazin-3-yl)methyl)-4-((cis)-3-phenylcyclobutyl)piperazine-2,3-dione], the EC50 came out at 20 nM.
The figure for `O=C1C(=O)N([C@H]2C[C@@H](c3ccccc3)C2)CCN1Cc1ccc(-n2ccnn2)nn1` [Example 327, 1-((6-(1H-1,2,3-triazol-1-yl)pyridazin-3-yl)methyl)-4-((cis)-3-phenylcyclobutyl)piperazine-2,3-dione] is 16 nM; for `O=c1c(=O)n(C2CCCC2)ccn1Cc1ccc(-n2ccnn2)nn1` [Example 328, 1-((6-(1H-1,2,3-triazol-1-yl)pyridazin-3-yl)methyl)-4-cyclopentyl-1,4-dihydropyrazine-2,3-dione] it is 7 nM; for `O=c1c(=O)n(C2CCC2)ccn1Cc1ccc(-n2cccn2)nn1` [Example 329, 1-((6-(1H-pyrazol-1-yl)pyridazin-3-yl)methyl)-4-cyclobutyl-1,4-dihydropyrazine-2,3-dione] it is 15 nM.
The figure for `O=c1c(=O)n(C2CCC2)ccn1Cc1ccc(-n2ccnc2)nn1` [Example 330, 1-((6-(1H-imidazol-1-yl)pyridazin-3-yl)methyl)-4-cyclobutyl-1,4-dihydropyrazine-2,3-dione] is 16 nM.
The figure for `O=c1c(=O)n([C@H]2C[C@H]3C[C@H]3C2)ccn1Cc1ccc(-n2ccnn2)nn1` [Example 331, 1-((6-(1H-1,2,3-triazol-1-yl)pyridazin-3-yl)methyl)-4-((cis)-bicyclo[3.1.0]hexan-3-yl)-1,4-dihydropyrazine-2,3-dione] is 9 nM; for `CC1(n2ccn(Cc3ccc(-n4nccn4)nn3)c(=O)c2=O)CC1` [Example 332, 1-((6-(2H-1,2,3-triazol-2-yl)pyridazin-3-yl)methyl)-4-(1-methylcyclopropyl)-1,4-dihydropyrazine-2,3-dione] it is 76 nM.
As to `N#CC1(n2ccn(Cc3ccc(-n4nccn4)nn3)c(=O)c2=O)CC1` [Example 333, 1-(4-((6-(2H-1,2,3-triazol-2-yl)pyridazin-3-yl)methyl)-2,3-dioxo-3,4-dihydropyrazin-1(2H)-yl)cyclopropane-1-carbonitrile], the EC50 worked out at 94 nM.
For the compound `CC1(n2ccn(Cc3ccc(-n4ccnn4)nn3)c(=O)c2=O)CC1` [Example 334, 1-((6-(1H-1,2,3-triazol-1-yl)pyridazin-3-yl)methyl)-4-(1-methylcyclopropyl)-1,4-dihydropyrazine-2,3-dione], the EC50 came to 29 nM.
The figure for `N#CC1(n2ccn(Cc3ccc(-n4ccnn4)nn3)c(=O)c2=O)CC1` [Example 335, 1-(4-((6-(1H-1,2,3-triazol-1-yl)pyridazin-3-yl)methyl)-2,3-dioxo-3,4-dihydropyrazin-1(2H)-yl)cyclopropane-1-carbonitrile] is 90 nM; for `O=C1C(=O)N(C2CCCC2)CCN1Cc1ccc(-n2nccn2)nc1` [Example 336, 1-((6-(2H-1,2,3-triazol-2-yl)pyridin-3-yl)methyl)-4-cyclopentylpiperazine-2,3-dione] it is 20 nM; for `O=c1c(=O)n(C2CCCC2)ccn1Cc1ncc(-c2ccccc2)cn1` [Example 337, 1-cyclopentyl-4-((5-phenylpyrimidin-2-yl)methyl)-1,4-dihydropyrazine-2,3-dione] it is 15 nM.
With `N#CC1CCC(n2ccn(Cc3nnc(-c4ccccc4)s3)c(=O)c2=O)C1` (centres unmarked) [Example 338, 3-(2,3-dioxo-4-((5-phenyl-1,3,4-thiadiazol-2-yl)methyl)-3,4-dihydropyrazin-1(2H)-yl)cyclopentane-1-carbonitrile], the EC50 is 12 nM.
The figure for `CCCOc1ccc(CN2CCN(C3CCCC3)C(=O)C2=O)nn1` [Example 339, 1-cyclopentyl-4-((6-propoxypyridazin-3-yl)methyl)piperazine-2,3-dione] is 42 nM.
The figure for `CCOc1ccc(CN2CCN(C3CCCC3)C(=O)C2=O)nn1` [Example 340, 1-cyclopentyl-4-((6-ethoxypyridazin-3-yl)methyl)piperazine-2,3-dione] is 70 nM; for `O=C1C(=O)N(C2CCCC2)CCN1Cc1ncc(-c2ccccn2)cn1` [Example 342, 1-cyclopentyl-4-((5-(pyridin-2-yl)pyrimidin-2-yl)methyl)piperazine-2,3-dione] it is 69 nM.
In the case of `O=C1C(=O)N(C2CCCC2)CCN1Cc1ncc(-c2cc(F)ccn2)cn1` [Example 343, 1-cyclopentyl-4-((5-(4-fluoropyridin-2-yl)pyrimidin-2-yl)methyl)piperazine-2,3-dione], the EC50 was found to be 133 nM.
The figure for `CC(C)(C)N1CCN(Cc2ncc(-c3ccccc3)cn2)C(=O)C1=O` [Example 345, 1-(tert-butyl)-4-((5-phenylpyrimidin-2-yl)methyl)piperazine-2,3-dione] is 59 nM; for `O=C1C(=O)N(C2CCCC2)CCN1Cc1nnc(-c2ccccc2)s1` [Example 346, 1-cyclopentyl-4-((5-phenyl-1,3,4-thiadiazol-2-yl)methyl)piperazine-2,3-dione] it is 7 nM; for `CC(c1cnn(-c2ccccc2)c1)N1CCN(C2CCCC2)C(=O)C1=O` (centres unmarked) [Example 347, 1-cyclopentyl-4-(1-(1-phenyl-1H-pyrazol-4-yl)ethyl)piperazine-2,3-dione] it is 74 nM.
The figure for `C[C@H](c1nnc(-c2ccccc2)s1)N1CCN(C2CCCC2)C(=O)C1=O` [Example 348, (R)-1-cyclopentyl-4-(1-(5-phenyl-1,3,4-thiadiazol-2-yl)ethyl)piperazine-2,3-dione] is 18 nM; for `C[C@@H](c1nnc(-c2ccccc2)s1)N1CCN(C2CCCC2)C(=O)C1=O` [Example 349, (S)-1-cyclopentyl-4-(1-(5-phenyl-1,3,4-thiadiazol-2-yl)ethyl)piperazine-2,3-dione] it is 25 nM.
The figure for `O=C1C(=O)N(C2CCCC2)CCN1CCc1nnc(-c2ccccc2)s1` [Example 350, 1-cyclopentyl-4-(2-(5-phenyl-1,3,4-thiadiazol-2-yl)ethyl)piperazine-2,3-dione] is 5 nM; for `O=C1C(=O)N(C2CCCC2)CCN1Cc1nnc(-c2ccc(F)cc2)s1` [Example 351, 1-cyclopentyl-4-((5-(4-fluorophenyl)-1,3,4-thiadiazol-2-yl)methyl)piperazine-2,3-dione] it is 8 nM; for `CC(Cc1nnc(-c2ccccc2)s1)N1CCN(C2CCCC2)C(=O)C1=O` (centres unmarked) [Example 352, 1-cyclopentyl-4-(1-(5-phenyl-1,3,4-thiadiazol-2-yl)propan-2-yl)piperazine-2,3-dione] it is 13 nM.
Regarding `CC(CN1CCN(C2CCCC2)C(=O)C1=O)c1nnc(-c2ccccc2)s1` (centres unmarked) [Example 353, 1-cyclopentyl-4-(2-(5-phenyl-1,3,4-thiadiazol-2-yl)propyl)piperazine-2,3-dione], the EC50 stood at 11 nM.
The figure for `O=C1C(=O)N(C2CCCC2)CCN1Cc1cc2ccccc2[nH]c1=O` [Example 354, 1-cyclopentyl-4-((2-oxo-1,2-dihydroquinolin-3-yl)methyl)piperazine-2,3-dione] is 20 nM; for `C[C@H](c1nnc(-c2ccccc2)s1)N1CCN(C2CCC2)C(=O)C1=O` [Example 355, (R)-1-cyclobutyl-4-(1-(5-phenyl-1,3,4-thiadiazol-2-yl)ethyl)piperazine-2,3-dione] it is 22 nM; for `C[C@@H](c1nnc(-c2ccccc2)s1)N1CCN(C2CCC2)C(=O)C1=O` [Example 356, (S)-1-cyclobutyl-4-(1-(5-phenyl-1,3,4-thiadiazol-2-yl)ethyl)piperazine-2,3-dione] it is 28 nM.
As to `CC1CN(C2CCC2)C(=O)C(=O)N1Cc1nnc(-c2ccccc2)s1` (centres unmarked) [Example 357, 1-cyclobutyl-5-methyl-4-((5-phenyl-1,3,4-thiadiazol-2-yl)methyl)piperazine-2,3-dione], the EC50 is 32 nM.
The figure for `O=C1C(=O)N(C2CCCC2)CCN1Cc1cc(-c2ccccc2)no1` [Example 358A, 1-cyclopentyl-4-((3-phenylisoxazol-5-yl)methyl)piperazine-2,3-dione] is 2 nM.
On to `O=c1c(=O)n(C2CCCC2)ccn1Cc1cc(-c2ccccc2)no1` [Example 358B, 1-cyclopentyl-4-((3-phenylisoxazol-5-yl)methyl)-1,4-dihydropyrazine-2,3-dione], for which the EC50 came to 1 nM.
In the case of `O=C1C(=O)N(C23CC(C2)C3)CCN1Cc1ccc(-n2nccn2)cn1` [Example 359, 1-((5-(2H-1,2,3-triazol-2-yl)pyridin-2-yl)methyl)-4-(bicyclo[1.1.1]pentan-1-yl)piperazine-2,3-dione], the EC50 worked out at 22 nM.
The figure for `O=c1c(=O)n(C23CC(C2)C3)ccn1Cc1ccc(-n2nccn2)cn1` [Example 360, 1-((5-(2H-1,2,3-triazol-2-yl)pyridin-2-yl)methyl)-4-(bicyclo[1.1.1]pentan-1-yl)-1,4-dihydropyrazine-2,3-dione] is 16 nM; for `O=C1C(=O)N(C2CCCC2)CCN1Cc1ncc(-c2nccs2)cn1` [Example 361, 1-cyclopentyl-4-((5-(thiazol-2-yl)pyrimidin-2-yl)methyl)piperazine-2,3-dione] it is 96 nM.
The figure for `O=C1C(=O)N(C2CCCC2)CCN1Cc1ccc(-c2nccs2)nn1` [Example 362, 1-cyclopentyl-4-((6-(thiazol-2-yl)pyridazin-3-yl)methyl)piperazine-2,3-dione] is 22 nM; for `O=C1C(=O)N(C2CCCC2)CCN1Cc1nnc(-c2nccs2)s1` [Example 363, 1-cyclopentyl-4-((5-(thiazol-2-yl)-1,3,4-thiadiazol-2-yl)methyl)piperazine-2,3-dione] it is 25 nM.
The figure for `O=C1C(=O)N(C2CCCC2)CCN1Cc1ccc(-c2nccs2)nc1` [Example 364, 1-cyclopentyl-4-((6-(thiazol-2-yl)pyridin-3-yl)methyl)piperazine-2,3-dione] is 17 nM.
